The values that follow come from patent US20250171423A1, “PHARMACEUTICAL COMPOUNDS FOR THE TREATMENT OF COMPLEMENT MEDIATED DISORDERS” (Achillion Pharmaceuticals, Inc., priority 2020, published 2025).

Read-outs that look alike come from different tables or passages of the source.

For the series the following is noted: rcm bond, DCM.

In the case of `CCOC(=O)[C@@H]1C[C@@]23COCCC/C=C/CCCCCCCCC(=O)N[C@@H](CCOc4ccccc4)C(=O)NCC(=O)N1[C@H]2C3`, the ring closure, yield of all isomers (from C=CCCCCCCCCC(=O)N[C@@H](CCOc1ccccc1)C(=O)NCC(=O)N1[C@H]2C[C@@]2(COCCCC=C)C[C@H]1C(=O)OCC, Grubbs 1st catalyst, 15.3 mM, 28.0 °C, 16.0 h) is 38.8%. In turn, `O=C1NCC(=O)N2[C@H]3C[C@@]3(COCCCC=CCCCCC/C=C\c3cc1ccc3Oc1ccc(F)cc1)C[C@H]2C(=O)OCc1ccccc1` returned a ring closure, yield of all isomers (from C=CCCCCC/C=C\c1cc(C(=O)NCC(=O)N2[C@H]3C[C@@]3(COCCCC=C)C[C@H]2C(=O)OCc2ccccc2)ccc1Oc1ccc(F)cc1, Grubbs 1st generation catalyst, 1.76 mM, 25.0 °C, 48.0 h) of 7.8%.
